Test results from patent publication US8975241B2, “Composition for treating and preventing obesity including high water-soluble 2-hydroxypropyl-betacyclodextrin as effective component” (Song Ho Biomed Co., Ltd., priority 2009, dated 2015).

Tests used:
Format in all cases: in vivo
[1] = test system: mouse model with obesity caused by a high fat diet; experiment: Change in body weight by autonomically drinking in mouse model with obesity caused by high fat diet; conditions: 15% (w/v) in drinking water
Method: Male C57BL/6J mice (Five age of the week, KRIBB, Korea) were accommodated for 1 week, and then were induced with obesity by giving a high fat diet (60% fat kcal, Research Diets) for 15 days. The weights of the animals that were induced with obesity were equally divided into 3 animals as one group. And then, the solvent-control group drank sterilized distilled water, autonomically. Hydroxypropyl-β-cyclodextrin (HPBCD) was dissolved in sterilized distilled water to be 10, 15, and 20% (W/V) concentrations for drinking autonomically. A change in body weight was daily measured to all of animals during the test; the fixed amount of feeds was provided at the day of measuring body weight, and then an amount of intake per a group (g/day) was calculated by measuring a residual amount of feeds at the next day. A change in body weight was measured during the test using α-cyclodextrin (α-CD) instead of 2-hydroxypropyl-β-cyclodextrin (HPBCD) in the same method as the above <Example 1>.

[2] = test system: mouse model with obesity caused by a high fat diet; experiment: Weights of body fat and liver after autonomically drinking in mouse model with obesity caused by high fat diet
Method: The animals induced with obesity in the above <Example 1> drank autonomically HPBCD with 10, 15, and 20% (W/V) concentrations for 3 days and then their autopsies were conducted. The mice were killed by using CO2 gas; their abdomens were cut; their genital fats, intra-abdominal fats, and livers were isolated; then their weights were measured using a chemical balance; average weight of three animals was calculated.

[3] = test system: high fat diet-mouse; experiment: Change in body weight by oral administration in high fat diet-mouse
Method: Male C57BL/6J mice (Five age of the week, KRIBB, Korea) were accommodated for 1 week. And then, the weights of the animals were equally divided into 5 animals as one group. While a high fat diet (60% fat kcal) was provided, sterilized distilled water and HPBCDs with 10, 20, and 40% (W/V) were orally administered at three times (Morning, Afternoon, Evening) a day for 5 days in 0.2 ml per 20 g body weight of a mouse at the same time. A change in body weight was measured to all of the animals during the test at one time per day; the fixed amount of feeds was provided at the day of measuring body weight, and then an average amount of intake per an animal (g/mouse/day) was calculated by measuring a residual amount of feeds at the next day.
A body weight was measured by using the same conditions as the above <Example 3>, except that BCDs with 10 and 20% (W/V) concentrations were used instead of HPBCDs with 10, 20, and 40% (W/V) concentrations.
A change in body weight was measured during the test using α-CD instead of HPBCD in the same method as the above <Example 3>.

[4] = test system: normal mouse (ICR); experiment: Oral maltose tolerance test; conditions: for Rate of Suppression (%): vs control group
Method: An oral maltose tolerance test system is to predict whether or not a sample has an effect on suppressing a sharp increase of blood sugar induced by intaking maltose after an oral-administration of the sample to a mouse.
A normal mouse [ICR, 6W, Coretech Inc., Korea] was accommodated for 1 week, and then approximately 18˜20 g female with 7 age of the week mouse was used. 6 mice were assigned for one experimental group and starved for 16 hours to use. HPBCD was dissolved in sterilized distilled water to be 20% (W/V) concentration, and then oral-administered in 0.2 mL per 20 g body weight of a mouse. And then, the maltose dissolved in physiological saline was oral-administered to mice in a liquid amount of 10 ml/kg to inject 2 g/kg after 15, 30, 60, and 90 minutes, respectively. The levels of blood sugars were measured just before administering maltose (0 hour), and at 15, 60, and 120 minutes after administering maltose. Blood for measuring blood sugar was collected from orbital venous of the mouse using a capillary tube. The blood sugar in the collected blood was measured using a measuring instrument, […] ALPHA (Boehringer mannheim Co.). The same amount of sterilized distilled water was administered for the control group.

[5] = 10% (w/v) in drinking water for 3 days
[6] = 15% (w/v) in drinking water for 3 days
[7] = 20% (w/v) in drinking water for 3 days
[8] = 20% (W/V) oral (−)15 min. before maltose 2 g/kg
[9] = 20% (W/V) oral (−)30 min. before maltose 2 g/kg
[10] = 20% (W/V) oral (−)60 min. before maltose 2 g/kg
[11] = 20% (W/V) oral (−)90 min. before maltose 2 g/kg

2-hydroxypropyl-β-cyclodextrin [HPBCD]
Change in body weight (%) ([1]; 1 Day): 96.1 ± 1.1 % | Change in body weight (%) ([1]; 3 Day): 90.9 ± 2.3 % | Total Amount of Fat [2, 5]: 1615.0 ± 212.3 mg | Weight of Genital Fat [2, 5]: 594.0 ± 95.0 mg | Weight of Intra-abdominal Fat [2, 5]: 158.8 ± 36.3 mg | Weight of Liver [2, 5]: 999.3 ± 150.2 mg | Weight of Subcutaneous Fat [2, 5]: 862.2 ± 86.7 mg | weight of liver vs control group ([2]; 10, 15, 20% (W/V) autonomically drinking): decreased depending on the concentrations | Total Amount of Fat [2, 6]: 1437.0 ± 282.0 mg | Weight of Genital Fat [2, 6]: 524.8 ± 67.1 mg | Weight of Intra-abdominal Fat [2, 6]: 147.2 ± 29.2 mg | Weight of Liver [2, 6]: 820.5 ± 66.0 mg | Weight of Subcutaneous Fat [2, 6]: 765.1 ± 238.8 mg | Total Amount of Fat [2, 7]: 1035.6 ± 324.3 mg | Weight of Genital Fat [2, 7]: 448.4 ± 108.6 mg | Weight of Intra-abdominal Fat [2, 7]: 97.8 ± 44.9 mg | Weight of Liver [2, 7]: 808.7 ± 76.8 mg | Weight of Subcutaneous Fat [2, 7]: 489.4 ± 183.5 mg | Body weight as percent of initial body weight ([3]; 10% (w/v) oral three times a day, 0 Day): 100.0 ± 0.0% | Body weight as percent of initial body weight ([3]; 10% (w/v) oral three times a day, 1 Day): 99.3 ± 0.9 % | Body weight as percent of initial body weight ([3]; 10% (w/v) oral three times a day, 2 Day): 98.5 ± 1.3 % | Body weight as percent of initial body weight ([3]; 10% (w/v) oral three times a day, 3 Day): 98.4 ± 1.2 % | Body weight as percent of initial body weight ([3]; 10% (w/v) oral three times a day, 4 Day): 98.3 ± 1.2 % | Body weight as percent of initial body weight ([3]; 10% (w/v) oral three times a day, 5 Day): 98.7 ± 2.0 % | body weight as compared with the control group ([3]; 10, 20, 40% (W/V) oral): decreased depending on the concentrations | body weight as compared with the initial body weight ([3]; 10, 20, 40% (W/V) oral): significantly decreased | Body weight as percent of initial body weight ([3]; 20% (w/v) oral three times a day, 0 Day): 100.0 ± 0.0% | Body weight as percent of initial body weight ([3]; 20% (w/v) oral three times a day, 1 Day): 97.1 ± 1.0 % | Body weight as percent of initial body weight ([3]; 20% (w/v) oral three times a day, 2 Day): 95.6 ± 1.1 % | Body weight as percent of initial body weight ([3]; 20% (w/v) oral three times a day, 3 Day): 95.8 ± 1.3 % | Body weight as percent of initial body weight ([3]; 20% (w/v) oral three times a day, 4 Day): 96.6 ± 1.0 % | Body weight as percent of initial body weight ([3]; 20% (w/v) oral three times a day, 5 Day): 95.7 ± 1.5 % | Body weight as percent of initial body weight ([3]; 40% (w/v) oral three times a day, 0 Day): 100.0 ± 0.0% | Body weight as percent of initial body weight ([3]; 40% (w/v) oral three times a day, 1 Day): 95.0 ± 2.2 % | Body weight as percent of initial body weight ([3]; 40% (w/v) oral three times a day, 2 Day): 93.1 ± 3.4 % | Body weight as percent of initial body weight ([3]; 40% (w/v) oral three times a day, 3 Day): 93.5 ± 3.4 % | Body weight as percent of initial body weight ([3]; 40% (w/v) oral three times a day, 4 Day): 94.3 ± 2.9 % | Body weight as percent of initial body weight ([3]; 40% (w/v) oral three times a day, 5 Day): 94.1 ± 1.9 % | Increasing Amount of Blood Sugar (15 min.~0 hour) [4, 8]: 189.7 mg/dL | Level of Blood Sugar Before and After Administration of Maltose (mg/dl), 0 hour [4, 8]: 83.2 mg/dL | Level of Blood Sugar Before and After Administration of Maltose (mg/dl), 15 min. [4, 8]: 272.8 mg/dL | Rate of Suppression (%) [4, 8]: 38.6% | Increasing Amount of Blood Sugar (15 min.~0 hour) [4, 9]: 164.8 mg/dL | Level of Blood Sugar Before and After Administration of Maltose (mg/dl), 0 hour [4, 9]: 87.2 mg/dL | Level of Blood Sugar Before and After Administration of Maltose (mg/dl), 15 min. [4, 9]: 252.0 mg/dL | Rate of Suppression (%) [4, 9]: 46.7% | Increasing Amount of Blood Sugar (15 min.~0 hour) [4, 10]: 171.3 mg/dL | Level of Blood Sugar Before and After Administration of Maltose (mg/dl), 0 hour [4, 10]: 86.2 mg/dL | Level of Blood Sugar Before and After Administration of Maltose (mg/dl), 15 min. [4, 10]: 257.5 mg/dL | Rate of Suppression (%) [4, 10]: 44.6% | Increasing Amount of Blood Sugar (15 min.~0 hour) [4, 11]: 186.2 mg/dL | Level of Blood Sugar Before and After Administration of Maltose (mg/dl), 0 hour [4, 11]: 77.7 mg/dL | Level of Blood Sugar Before and After Administration of Maltose (mg/dl), 15 min. [4, 11]: 264.2 mg/dL | Rate of Suppression (%) [4, 11]: 39.6% | blood sugar caused by intaking maltose suppressed as compared with the control group ([4]; oral, all pre-treatment times): 38˜47%
